Assay results as given in patent publication US20240025906A1 (NEURON23, INC., priority 2022, published 2024).
pIC50, pKd: −log10 of the molar value. Where two headings read alike, the source gives them in different places.

What was measured:
[1] = tested on: JAK1/TYK2 pSTAT5 (Tyr694/699) in THP-1 cell line; experiment: IFNa-stimulated JAK1/TYK2 pSTAT5 (Tyr694/699) inhibition cellular assay, AlphaLISA; assay type: cell-based; conditions: THP-1 cells, AlphaLISA (Assay B), read-out: Cellular_THP1_IFNa-pSTATS_TYK2
Procedure: Assay B: JAK1/TYK2 pSTAT5 (Tyr694/699) inhibition IC50 Cellular Assays
To evaluate the inhibition effect of compounds disclosed herein against TYK2, an IFNa-stimulated JAE1/TYK2 pSTAT5 (Tyr694/699) quantification assay was conducted in the THP-1 cell line using an AlphaLISA detection method (PerkinElmer ALSU-PST5). Compounds in DMSO were serially diluted in a 96-well plate (10 mM starting concentration, 6-fold dilutions, 8 concentrations total) prior to dispensing of 8 nL into a 384-well plate using an I.DOT non-contact liquid handler (Dispendix). Cells were collected via centrifugation at 300 ref for 5 min and resuspended in Hanks' Balanced Salt Solution (Gibco 14175-079), and 6 μl containing 2e4 cells was dispensed into each well of the 384-well plate containing test compounds or DMSO alone (final concentrations: 10000, 1666.67, 277.78, 46.30, 7.72, 1.29, 0.21 and 0.04 nM). Cells were then incubated for 1 h at 37° C. with 5% CO2 prior to the addition of 2 μL IFNa (100 ng/mL; PBL Assay Science 11175-1). Following an additional 30 min incubation at 37° C. with 5% CO2, 2 μL of 5× lysis buffer was added to each well using the I.DOT […]. Plates were sealed and incubated at RT for 10 min on a plate shaker set to 400 RPM. Cell lysates were then frozen at −80° C. before subsequent detection of pSTAT5 by AlphaLISA. At the time of the detection assay, cell lysates were thawed for 5 min at room temperature and then on a plate shaker set to 400 RPM for an additional 10 min. Following the manufacturer recommended protocol (Perkin Elmer), 5 μL of acceptor bead master mix was added to each well; plates were then resealed and incubated for 2 min at RT on a plate shaker (400 rpm) prior to an additional 2-h incubation without agitation (protected from light). Donor bead master mix, 5 uL per well, was then added to each well before 2 min of shaking (RT, 400 rpm) and 2-h incubation (RT, no shaking, protected from light). Levels of pSTAT5 protein were then measured as fluorescent signal at 615 nm with an EnVision multimode plate reader (Perkin Elmer). IC50 values were calculated in Dotmatics using the four-parameter logistic curve regression model with bottom fixed to 0 and Hill Slope fixed to −1.

[2] = target: T1, TYK2 JH2 (Homo sapiens, UniProt P29597); experiment: TYK2 JH2 binding assay (KINOMEscan KdELECT competitive binding); conditions: TYK2 JH2 domain
T1 construct: purchased DiscoverX (KINOMEscan KdELECT service); host or cells: E. coli BL21-derived (T7 phage display) or HEK-293
Procedure: Assay A: TYK2 JH2 Binding Assay
Competitive binding studies using TKY2 JH2-domain fragments were conducted by DiscoverX using the KINOMEscan (KdELECT) platform. Kinase-tagged T7 phage strains were prepared in an E. coli host derived from the BL21 strain. E. coli were grown to log-phase and infected with […] and incubated with shaking at 32° C. until lysis. The lysates were centrifuged and filtered to remove cell debris. The remaining kinases were produced in HEK-293 cells and subsequently tagged with DNA for qPCR detection. Streptavidin-coated magnetic beads were treated with biotinylated small molecule ligands for 30 minutes at room temperature to generate affinity resins for kinase assays. The liganded beads were blocked with excess biotin and washed with blocking buffer (SeaBlock (Pierce), 1% BSA, 0.05% Tween 20, 1 mM DTT) to remove unbound ligand and to reduce non-specific binding. Binding reactions were assembled by combining kinases, liganded affinity beads, and test compounds in 1× binding buffer (20% SeaBlock, 0.17×PBS, 0.05% Tween 20, 6 mM DTT). Test compounds were prepared as 111× stocks in 100% DMSO. Kds were determined using an 11-point 3-fold compound dilution series with three DMSO control points. All compounds for Kd measurements are distributed by acoustic transfer (non-contact dispensing) in 100% DMSO. The compounds were then diluted directly into the assays such that the final concentration of DMSO was 0.9%. All reactions performed in polypropylene 384-well plate. Each was a final volume of 0.02 ml. The assay plates were incubated at room temperature with shaking for 1 hour and the affinity beads were washed with wash buffer (1×PBS, 0.05% Tween 20). The beads were then re-suspended in elution buffer (1×PBS, 0.05% Tween 20, 0.5 μM non-biotinylated affinity ligand) and incubated at room temperature with shaking for 30 minutes. The kinase concentration in the eluates was measured by qPCR.

[3] = Homo sapiens, IFNa-stimulated pSTAT5 (Tyr694/699)
[4] = KINOMEscan KdELECT (Assay A), read-out: Biochemical TYK2_JH2_Kd
[5] = KINOMEscan KdELECT (Assay A), read-out: Biochemical TYK2_DiscoverX_JH2_BND_Kd

T1 sequence (P29597 589-875 limits assumed): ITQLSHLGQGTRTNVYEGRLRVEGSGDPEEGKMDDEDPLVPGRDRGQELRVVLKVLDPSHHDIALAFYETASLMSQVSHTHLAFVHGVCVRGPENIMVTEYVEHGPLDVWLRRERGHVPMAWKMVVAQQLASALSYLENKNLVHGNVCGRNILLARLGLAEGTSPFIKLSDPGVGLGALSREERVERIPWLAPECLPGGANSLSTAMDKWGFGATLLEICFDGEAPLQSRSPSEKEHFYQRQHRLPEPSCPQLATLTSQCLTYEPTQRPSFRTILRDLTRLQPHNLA

| pKd [2, 4] | Compound | further results |
| --- | --- | --- |
| – | CNc1ncc(C#Cc2ccc3nc(CF)n(C)c3c2)c2cc(NC(=O)C3CC3)ncc12 [Example 810, N-(5-((2-(fluoromethyl)-1-methyl-1H-benzo[d]imidazol-6-yl)ethynyl)-8-(methylamino)-2,7-naphthyridin-3-yl)cyclopropanecarboxamide] | pIC50 ([1]; Homo sapiens, IFNa-stimulated): ≥ 6.30 |
| – | CNc1ncc(-c2nc3ccc(N4CCOCC4)cn3n2)c2cc(Nc3ccccn3)nnc12 [Example 892, N^8-methyl-5-(6-morpholino-[1,2,4]triazolo[1,5-a]pyridin-2-yl)-N^3-(pyridin-2-yl)pyrido[3,4-c]pyridazine-3,8-diamine] | pIC50 ([1]; Homo sapiens, IFNa-stimulated): ≥ 6.30 |
| – | CNc1ncc(C#Cc2ccc(Cn3cccn3)cn2)c2cc(NC(=O)C3CC3)ncc12 [Example 907, N-(5-((5-((1H-pyrazol-1-yl)methyl)pyridin-2-yl)ethynyl)-8-(methylamino)-2,7-naphthyridin-3-yl)cyclopropanecarboxamide] | pIC50 ([1]; Homo sapiens, IFNa-stimulated): ≥ 6.30 |
| – | CNc1ncc(C#Cc2ccc3c(c2)CC(=O)N3C)c2cc(NC(=O)C3CC3)ncc12 [Example 803, N-(5-((1-methyl-2-oxoindolin-5-yl)ethynyl)-8-(methylamino)-2,7-naphthyridin-3-yl)cyclopropanecarboxamide] | pIC50 ([1]; Homo sapiens, IFNa-stimulated): ≥ 6.30 |
| – | CNc1ncc(C#Cc2ccc(CN3CCC3)cn2)c2cc(NC(=O)C3CC3)ncc12 [Example 905, N-(5-((5-(azetidin-1-ylmethyl)pyridin-2-yl)ethynyl)-8-(methylamino)-2,7-naphthyridin-3-yl)cyclopropanecarboxamide] | pIC50 ([1]; Homo sapiens, IFNa-stimulated): ≥ 6.30 |
| – | CNc1ncc(-c2nc3cc(-c4ncnn4C)ccc3o2)c2cc(NC(=O)C3CC3)ncc12 [Example 465] | pIC50 ([1]; IFNa-stimulated): ≥ 6.30 |
| – | CNc1ncc(C#Cc2cnc(C)n2C(F)F)c2cc(NC(=O)[C@H]3C[C@H]3C)ncc12 [Example 1140, (1S,2R)—N-(5-((1-(difluoromethyl)-2-methyl-1H-imidazol-5-yl)ethynyl)-8-(methylamino)-2,7-naphthyridin-3-yl)-2-methylcyclopropanecarboxamide] | pIC50 [1, 3]: ≥ 6.30 |
| – | CNc1ncc(-c2nc3ncc(C)cc3o2)c2cc(NC(=O)C3CC3)ncc12 [Example 1104, N-(8-(methylamino)-5-(6-methyloxazolo[4,5-b]pyridin-2-yl)-2,7-naphthyridin-3-yl)cyclopropanecarboxamide] | pIC50 [1, 3]: ≥ 6.30 |
| – | CNc1ncc(C#Cc2ccc3c(=O)n(C)ccc3c2)c2cc(NC(=O)C3CC3)ncc12 [Example 1136, N-(5-((2-methyl-1-oxo-1,2-dihydroisoquinolin-6-yl)ethynyl)-8-(methylamino)-2,7-naphthyridin-3-yl)cyclopropanecarboxamide] | pIC50 [1, 3]: ≥ 6.30 |
| 6.00 to 7.00 | CNc1ncc(N2CCCS2(=O)=O)c2cc(NC(=O)C3CC3)ncc12 [Example 58, N-(5-(1,1-dioxidoisothiazolidin-2-yl)-8-(methylamino)-2,7-naphthyridin-3-yl)cyclopropanecarboxamide] | – |
| ≥ 7.00 | CNc1ncc(-c2nc3cccc(F)c3o2)c2cc(NC(=O)C3CC3)ncc12 [Example 185, N-(5-(7-fluorobenzo[d]oxazol-2-yl)-8-(methylamino)-2,7-naphthyridin-3-yl)cyclopropanecarboxamide] | – |
| – | CNc1ncc(-c2nnc3n2CCC3)c2cc(NC(=O)C3CC3)ncc12 [Example 854, N-(5-(6,7-dihydro-5H-pyrrolo[2,1-c][1,2,4]triazol-3-yl)-8-(methylamino)-2,7-naphthyridin-3-yl)cyclopropanecarboxamide] | pKd [2, 5]: 6.00 to 7.00 |
| 6.00 to 7.00 | CSc1ncc(-c2ccccc2)c2cc(NC(=O)C3CC3)ncc12 [Example 159, N-(8-(methylthio)-5-phenyl-2,7-naphthyridin-3-yl)cyclopropanecarboxamide] | – |
| ≥ 7.00 | CNc1ncc(-c2cn(C)c3ncccc23)c2cc(NC(=O)C3CC3)ncc12 [Example 107, N-(5-(1-methyl-1H-pyrrolo[2,3-b]pyridin-3-yl)-8-(methylamino)-2,7-naphthyridin-3-yl)cyclopropanecarboxamide] | – |
| ≥ 7.00 | CNc1ncc(-c2nc3cc(N4CC(F)(F)C4)ccn3n2)c2cc(NC(=O)C3CC3)ncc12 [Example 189, N-(5-(7-(3,3-difluoroazetidin-1-yl)-[1,2,4]triazolo[1,5-a]pyridin-2-yl)-8-(methylamino)-2,7-naphthyridin-3-yl)cyclopropanecarboxamide] | – |
| 5.00 to 6.00 | CNc1ncc(-c2ccccc2)c2cc(NCc3ccccn3)ncc12 [Example 100, N^1-methyl-4-phenyl-N^6-(pyridin-2-ylmethyl)-2,7-naphthyridine-1,6-diamine] | – |
| ≥ 7.00 | CNc1ncc(C(N)=O)c2cc(NC(=O)C3CC3)ncc12 [Example 123, 6-(cyclopropanecarboxamido)-1-(methylamino)-2,7-naphthyridine-4-carboxamide] | – |
| ≥ 7.00 | CNc1ncc(-c2nc3ccc(F)cn3n2)c2cc(NC(=O)C3CC3)ncc12 [Example 191, N-(5-(6-fluoro-[1,2,4]triazolo[1,5-a]pyridin-2-yl)-8-(methylamino)-2,7-naphthyridin-3-yl)cyclopropanecarboxamide] | – |
| ≥ 7.00 | CNc1ncc(-c2nc3cc(N4CCCC(N5CC(F)(F)C5)C4)ccn3n2)c2cc(NC(=O)C3CC3)ncc12 (stereo not drawn) [Example 190, N-(5-(7-(3-(3,3-difluoroazetidin-1-yl)piperidin-1-yl)-[1,2,4]triazolo[1,5-a]pyridin-2-yl)-8-(methylamino)-2,7-naphthyridin-3-yl)cyclopropanecarboxamide] | – |
| 6.00 to 7.00 | CNc1ncc(C(=O)N2CCCCC2)c2cc(NC(=O)C3CC3)ncc12 [Example 122, N-(8-(methylamino)-5-(piperidine-1-carbonyl)-2,7-naphthyridin-3-yl)cyclopropanecarboxamide] | – |
| – | CCOC(=O)[C@H]1C[C@@H]1C(=O)Nc1cc2c(-c3nc4cc(OC)ccc4o3)cnc(NC)c2cn1 (racemic) [Example 392, ethyl 2-((5-(5-methoxybenzo[d]oxazol-2-y1)-8-(methylamino)-2,7-naphthyridin-3-yl)carbamoyl)cyclopropane-1-carboxylate] | pKd ([2]; DiscoverX KINOMEscan KdELECT (Assay A), read-out: Biochemical TYK2_DiscoverX_JH2_BND_Kd): ≥ 7.00 |
| – | CNc1ncc(-c2cccn3nc(Br)nc23)c2cc(NC(=O)C3CC3)ncc12 [Example 856, N-(5-(2-bromo-[1,2,4]triazolo[1,5-a]pyridin-8-yl)-8-(methylamino)-2,7-naphthyridin-3-yl)cyclopropanecarboxamide] | pKd [2, 5]: 6.00 to 7.00 |
| 6.00 to 7.00 | CNc1ncc(-c2ccccc2)c2cc(Nc3ccccc3)ncc12 [Example 102] | – |
| ≥ 7.00 | CNc1ncc(-c2cc(-c3ccccc3)ns2)c2cc(NC(=O)C3CC3)ncc12 [Example 146, N-(8-(methylamino)-5-(3-phenylisothiazol-5-yl)-2,7-naphthyridin-3-yl)cyclopropanecarboxamide] | – |
